# How the values were obtained:
# Human plasma kallikrein = Human plasma kallikrein (Homo sapiens (Human), UniProt P03952); test: Determination of the IC50 for plasma kallikrein; assay type: biochemical; conditions: 37° C., fluorogenic substrate H-DPro-Phe-Arg-AFC; read-out: IC50 (human PKal)
# Protocol: Determination of the IC50 for plasma kallikrein
# (§1) Plasma kallikrein inhibitory activity in vitro was determined using standard published methods (see e.g. Johansen et al., Int. J. Tiss. Reac. 1986, 8, 185; Shori et al., Biochem. Pharmacol., 1992, 43, 1209; Stürzebecher et al., Biol. Chem. Hoppe-Seyler, 1992, 373, 1025). Human plasma kallikrein (Protogen) was incubated at 37° C. with the fluorogenic substrate H-DPro-Phe-Arg-AFC and various concentrations of the test compound. Residual enzyme activity (initial rate of reaction) was determined by measuring the change in […] at 410 nm and the IC50 value for the test compound was determined.
# Human KLK1 = Human KLK1 (Homo sapiens (Human), UniProt P06870); test: Determination of the IC50 for KLK1; assay type: biochemical; conditions: 37° C., fluorogenic substrate H-DVal-Leu-Arg-AFC
# Chain of Human KLK1 (P06870 25-262): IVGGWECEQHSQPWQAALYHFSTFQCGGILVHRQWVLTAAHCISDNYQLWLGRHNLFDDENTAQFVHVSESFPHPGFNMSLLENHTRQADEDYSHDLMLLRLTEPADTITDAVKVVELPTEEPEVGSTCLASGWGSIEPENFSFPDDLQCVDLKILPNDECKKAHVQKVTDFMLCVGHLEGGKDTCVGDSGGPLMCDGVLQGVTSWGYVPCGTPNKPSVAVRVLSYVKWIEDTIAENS
# Protocol: Determination of the IC50 for KLK1
# as §1, with “KLK1” for “Plasma kallikrein”, “KLK1 (Callbiochem)” for “plasma kallikrein (Protogen)”, “H-DVal-Leu-Arg-AFC” for “H-DPro-Phe-Arg-AFC”
# Chain of Human plasma kallikrein (P03952 391-638): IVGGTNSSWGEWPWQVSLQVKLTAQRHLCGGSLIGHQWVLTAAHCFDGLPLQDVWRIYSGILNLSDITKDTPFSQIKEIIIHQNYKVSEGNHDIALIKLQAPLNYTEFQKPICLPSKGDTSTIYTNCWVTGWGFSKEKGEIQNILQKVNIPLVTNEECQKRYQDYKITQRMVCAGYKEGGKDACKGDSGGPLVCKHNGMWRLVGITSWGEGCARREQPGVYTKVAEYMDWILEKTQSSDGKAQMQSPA
# Chain of Human plasma kallikrein (P03952 20-390 partner): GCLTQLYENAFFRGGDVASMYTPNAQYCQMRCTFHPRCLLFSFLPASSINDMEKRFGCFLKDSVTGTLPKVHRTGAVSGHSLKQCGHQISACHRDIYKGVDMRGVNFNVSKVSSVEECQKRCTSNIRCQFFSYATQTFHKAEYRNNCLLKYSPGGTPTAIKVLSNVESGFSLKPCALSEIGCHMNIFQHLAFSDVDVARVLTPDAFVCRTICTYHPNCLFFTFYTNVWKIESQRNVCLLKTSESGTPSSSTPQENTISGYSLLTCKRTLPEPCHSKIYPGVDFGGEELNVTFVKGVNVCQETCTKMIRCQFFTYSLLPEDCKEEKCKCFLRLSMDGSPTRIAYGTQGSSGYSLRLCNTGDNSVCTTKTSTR
IC50 (Human plasma kallikrein) [nM],IC50 (Human KLK1) [nM],Compound
216,–,"Cc1cnn(Cc2ccc(Cc3cncc(C(=O)NCc4cnc5[nH]ccc5c4)c3)cc2)c1 [Example 2, 5-({4-[(4-Methylpyrazol-1-yl)methyl]phenyl}methyl)-N-{7H-pyrrolo[2,3-b]pyridin-5-ylmethyl}pyridine-3-carboxamide]"
580,27800,"O=C(NCc1cnc2[nH]ccc2c1)c1ccc(=O)n(Cc2ccc(Cn3ccccc3=O)cc2)c1 [Example 6, 6-Oxo-1-({4-[(2-oxopyridin-1-yl)methyl]phenyl}methyl)-N-{7H-pyrrolo[2,3-b]pyridin-5-ylmethyl}pyridine-3-carboxamide]"
3.86,–,Cc1cnn(Cc2ccc(Cc3cncc(C(=O)NCc4ccc5c(N)nccc5c4)c3)cc2)c1 [Example 1]

Compound,IC50 (Human plasma kallikrein) [nM],IC50 (Human KLK1) [nM]
"Cc1cnn(Cc2ccc(Cc3ccnc(C(=O)NCc4cnc5[nH]ccc5c4)c3)cc2)c1 [Example 4, 4-({4-[(4-Methylpyrazol-1-yl)methyl]phenyl}methyl)-N-{7H-pyrrolo[2,3-b]pyridin-5-ylmethyl}pyridine-2-carboxamide]",6610,–
